From article PMC10584170, “Machine learning-based phenotypic imaging to characterise the targetable biology of Plasmodium falciparum male gametocytes for the development of transmission-blocking antimalarials” (PLOS Pathogens, 2023)
Read-outs that look alike come from different tables or passages of the source. Values belong to the compound of their own block, whether it stands above or below them.

Key:
[1] = system: P. falciparum male gametocytes; test: P. falciparum Dual Gamete Formation Assay (PfDGFA), male readout (exflagellation); format: cell-based, Plasmodium falciparum NF54; settings: for Activity: hit = >50% inhibition in male or female readout in at least 3 replicates, 0 = no class assigned
Outline: (§1)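 Male and female gamete formation were quantified by microscopy image analysis following 24 h incubation of mature NF54 gametocytes with compound and activation at 28°C with xanthurenic acid.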

[2] = system: P. falciparum female gametocytes; test: P. falciparum Dual Gamete Formation Assay (PfDGFA), female readout (Pfs25-positive female gametes); format: cell-based, Plasmodium falciparum NF54
Outline: as §1

[3] = 2µM, 24h preincubation with gametocytes prior to induction of gametogenesis, average of replicates
[4] = 2µM, 24h preincubation with gametocytes prior to induction of gametogenesis, replicate R1
[5] = 2µM, 24h preincubation with gametocytes prior to induction of gametogenesis, replicate R3
[6] = 2µM, 24h preincubation with gametocytes prior to induction of gametogenesis, replicate R4
[7] = 2µM, 24h preincubation, number of replicates with >50% inhibition in the male readout
[8] = 2µM, 24h preincubation, number of replicates with >50% inhibition in the female readout
[9] = PfDGFA at 2µM, 24h preincubation with gametocytes, average of replicates
[10] = PfDGFA at 2µM, 24h preincubation with gametocytes, replicate R1
[11] = PfDGFA at 2µM, 24h preincubation with gametocytes, replicate R3
[12] = PfDGFA at 2µM, 24h preincubation with gametocytes, replicate R4
[13] = number of replicates with >50% inhibition in the male readout, 2µM
[14] = number of replicates with >50% inhibition in the female readout, 2µM
[15] = 2µM, 24h preincubation, hits selected on >50% inhibition in the male readout across replicates
[16] = PfDGFA at 2µM, 24h preincubation
[17] = 2µM, 24h preincubation, hits selected on >50% inhibition in the female readout across replicates
[18] = PfDGFA at 2µM, 24h preincubation with gametocytes prior to induction of gametogenesis, replicate R1
[19] = PfDGFA at 2µM, 24h preincubation with gametocytes prior to induction of gametogenesis, replicate R3
[20] = PfDGFA at 2µM, 24h preincubation with gametocytes prior to induction of gametogenesis, replicate R4
[21] = PfDGFA at 2µM, 24h preincubation, average of replicates

Compound: Cc1cccc2nc(-c3ccc(-c4cccc(CN5CCC(CCN6CCCCC6)CC5)c4)s3)[nH]c12.O=C(O)C(F)(F)F [TCMDC-133923]
Average inhibition male (%) [1, 3]: 52.7%
% inhibition male (individual replicates) R1 [1, 4]: 48.5%
% inhibition male (individual replicates) R3 [1, 5]: 59.9%
% inhibition male (individual replicates) R4 [1, 6]: 89.6%
HitlevelM [1, 7]: 2
Average inhibition female (%) [2, 3]: 32.1%
% inhibition female (individual replicates) R1 [2, 4]: 30.9%
% inhibition female (individual replicates) R3 [2, 5]: 27.4%
% inhibition female (individual replicates) R4 [2, 6]: 27.6%
HitlevelF [2, 8]: 0

Compound: Cc1cccc2nc(-c3ccc(-c4ccc(CN5CCC(CCN6CCCCC6)CC5)cc4)cc3)[nH]c12.O=C(O)C(F)(F)F [TCMDC-133929]
Average inhibition male (%) [1, 9]: 89.3%
% inhibition male (individual replicates) R1 [1, 10]: 91.7%
% inhibition male (individual replicates) R3 [1, 11]: 68.3%
% inhibition male (individual replicates) R4 [1, 12]: 101.6%
HitlevelM [1, 13]: 4
Average inhibition female (%) [2, 9]: 48.2%
% inhibition female (individual replicates) R1 [2, 10]: 36.0%
% inhibition female (individual replicates) R3 [2, 11]: 37.3%
% inhibition female (individual replicates) R4 [2, 12]: 59.9%
HitlevelF [2, 14]: 2

Compound: FC(F)(F)c1ccc2[nH]c(-c3ccc(-c4cccc(CN5CCC(CCN6CCCCC6)CC5)c4)cc3)nc2c1.O=C(O)C(F)(F)F [TCMDC-133941]
Average inhibition male (%) [1, 9]: 80.4%
% inhibition male (individual replicates) R1 [1, 10]: 88.3%
% inhibition male (individual replicates) R3 [1, 11]: 55.8%
% inhibition male (individual replicates) R4 [1, 12]: 84.9%
HitlevelM [1, 13]: 4
Average inhibition female (%) [2, 9]: 50.7%
% inhibition female (individual replicates) R1 [2, 10]: 37.2%
% inhibition female (individual replicates) R3 [2, 11]: 33.9%
% inhibition female (individual replicates) R4 [2, 12]: 67.8%
HitlevelF [2, 14]: 2

Compound: O=C(O)C(F)(F)F.Oc1ccc(CCNc2nc(NCCCOc3cc(CN4CCCCC4)ccc3F)nc(N3CCNCC3)n2)cc1 [TCMDC-134044]
Average inhibition male (%) [1, 3]: 22.7%
% inhibition male (individual replicates) R1 [1, 4]: 35.5%
% inhibition male (individual replicates) R3 [1, 5]: -22.2%
% inhibition male (individual replicates) R4 [1, 6]: 28.2%
HitlevelM [1, 15]: 0
Activity [1, 16]: 0
Average inhibition female (%) [2, 3]: 16.2%
% inhibition female (individual replicates) R1 [2, 4]: 9.4%
% inhibition female (individual replicates) R3 [2, 5]: -11.0%
% inhibition female (individual replicates) R4 [2, 6]: 47.6%
HitlevelF [2, 17]: 0

Compound: Cc1c(Cl)cccc1S(=O)(=O)Nc1ccc(CCN2CCC(N)CC2)cc1.Cl [TCMDC-134083]
Average inhibition male (%) [1, 3]: 39.0%
% inhibition male (individual replicates) R1 [1, 4]: 41.2%
% inhibition male (individual replicates) R3 [1, 5]: 34.9%
% inhibition male (individual replicates) R4 [1, 6]: 36.9%
HitlevelM [1, 7]: 0
Average inhibition female (%) [2, 3]: 33.7%
% inhibition female (individual replicates) R1 [2, 4]: 28.3%
% inhibition female (individual replicates) R3 [2, 5]: 44.7%
% inhibition female (individual replicates) R4 [2, 6]: 16.4%
HitlevelF [2, 8]: 0

Compound: Cl.NC1CCN(CCc2ccc(NS(=O)(=O)c3cccc4ccccc34)cc2)CC1 [TCMDC-134084]
Average inhibition male (%) [1, 3]: 20.4%
% inhibition male (individual replicates) R1 [1, 4]: 10.3%
% inhibition male (individual replicates) R4 [1, 6]: 7.9%
HitlevelM [1, 7]: 0
Average inhibition female (%) [2, 3]: 19.4%
% inhibition female (individual replicates) R1 [2, 4]: 15.4%
% inhibition female (individual replicates) R3 [2, 5]: 22.2%
% inhibition female (individual replicates) R4 [2, 6]: 21.1%
HitlevelF [2, 8]: 0

Compound: Cl.NC1CCN(CCc2ccc(NS(=O)(=O)c3ccc(-c4ccccc4)cc3)cc2)CC1 [TCMDC-134085]
Average inhibition male (%) [1, 3]: 44.1%
% inhibition male (individual replicates) R1 [1, 4]: 43.6%
% inhibition male (individual replicates) R3 [1, 5]: 36.7%
% inhibition male (individual replicates) R4 [1, 6]: 44.2%
HitlevelM [1, 7]: 1
Average inhibition female (%) [2, 3]: 47.2%
% inhibition female (individual replicates) R1 [2, 4]: 28.9%
% inhibition female (individual replicates) R3 [2, 5]: 50.6%
% inhibition female (individual replicates) R4 [2, 6]: 70.5%
HitlevelF [2, 8]: 2

Compound: COc1ccc(-c2cnc(NCc3ccccc3)nc2)cc1CNC1CCN(C)CC1.O=C(O)C(F)(F)F [TCMDC-134121]
Average inhibition male (%) [1, 3]: 49.5%
% inhibition male (individual replicates) R1 [1, 4]: 40.8%
% inhibition male (individual replicates) R4 [1, 6]: 53.6%
HitlevelM [1, 7]: 2
Average inhibition female (%) [2, 3]: 23.3%
% inhibition female (individual replicates) R1 [2, 4]: 22.9%
% inhibition female (individual replicates) R3 [2, 5]: 24.0%
% inhibition female (individual replicates) R4 [2, 6]: 18.0%
HitlevelF [2, 8]: 0

IC50 ([1]; Plasmodium falciparum, PfDGFA, 24 h incubation with gametocytes before induction, exflagellation readout, read-out: Male IC50): 6.25 µM
IC50 ([2]; Plasmodium falciparum, PfDGFA, 24 h incubation with gametocytes before induction, female gamete readout, read-out: Female IC50): > 10 µM
Compound: CS(=O)(=O)Cc1ccc(Nc2ncc(Cl)c(Nc3cccnc3C(N)=O)n2)cc1.Cl [TCMDC-134165]
Selectivity Ratio M ([1]; HepG2 Tox50 versus male IC50): 16.00
inhibition at 2 µM ([1]; Plasmodium falciparum, 2µM, 24h preincubation with gametocytes, average of replicates, read-out: Average inhibition male (%)): 92.8%
inhibition at 2 µM ([1]; Plasmodium falciparum, 2µM, 24h preincubation with gametocytes, replicate R1, read-out: % inhibition male (individual replicates) R1): 89.8%
inhibition at 2 µM ([1]; Plasmodium falciparum, 2µM, 24h preincubation with gametocytes, replicate R2, read-out: % inhibition male (individual replicates) R2): 95.7%
inhibition at 2 µM ([1]; Plasmodium falciparum, 2µM, 24h preincubation with gametocytes, replicate R3, read-out: % inhibition male (individual replicates) R3): 93.3%
inhibition at 2 µM ([1]; Plasmodium falciparum, 2µM, 24h preincubation with gametocytes, replicate R4, read-out: % inhibition male (individual replicates) R4): 92.2%
Selectivity ratio F ([2]; HepG2 Tox50 versus female IC50): 10.00
inhibition at 2 µM ([2]; Plasmodium falciparum, 2µM, 24h preincubation with gametocytes, average of replicates, read-out: Average inhibition female (%)): -4.3%
inhibition at 2 µM ([2]; Plasmodium falciparum, 2µM, 24h preincubation with gametocytes, replicate R1, read-out: % inhibition female (individual replicates) R1): -8.1%
inhibition at 2 µM ([2]; Plasmodium falciparum, 2µM, 24h preincubation with gametocytes, replicate R2, read-out: % inhibition female (individual replicates) R2): -1.5%
inhibition at 2 µM ([2]; Plasmodium falciparum, 2µM, 24h preincubation with gametocytes, replicate R3, read-out: % inhibition female (individual replicates) R3): -18.7%
inhibition at 2 µM ([2]; Plasmodium falciparum, 2µM, 24h preincubation with gametocytes, replicate R4, read-out: % inhibition female (individual replicates) R4): 10.9%

Compound: CS(=O)(=O)Cc1cccc(Nc2ncc(Cl)c(Nc3cccnc3C(N)=O)n2)c1.Cl [TCMDC-134166]
% inhibition male (individual replicates) R1 [1, 18]: 26.3%
% inhibition male (individual replicates) R3 [1, 19]: 45.1%
% inhibition male (individual replicates) R4 [1, 20]: 42.9%
Average inhibition male (%) [1, 21]: 37.5%
% inhibition female (individual replicates) R1 [2, 18]: 12.6%
% inhibition female (individual replicates) R3 [2, 19]: -16.8%
% inhibition female (individual replicates) R4 [2, 20]: 3.4%
Average inhibition female (%) [2, 21]: 1.1%

Compound: CC[C@H](C)CNC(=O)c1ccnc(-c2ccc(CN3CCC(N4CCCC4)CC3)cc2)c1.O=C(O)C(F)(F)F [TCMDC-134250]
Average inhibition male (%) [1, 3]: -12.4%
% inhibition male (individual replicates) R1 [1, 4]: -12.1%
% inhibition male (individual replicates) R3 [1, 5]: -7.9%
% inhibition male (individual replicates) R4 [1, 6]: -29.8%
HitlevelM [1, 15]: 0
Activity [1, 16]: 0
Average inhibition female (%) [2, 3]: 14.3%
% inhibition female (individual replicates) R1 [2, 4]: 14.5%
% inhibition female (individual replicates) R3 [2, 5]: 6.5%
% inhibition female (individual replicates) R4 [2, 6]: 6.6%
HitlevelF [2, 17]: 0

Compound: CC1CCCC(C)N1C[C@@H](O)CNS(=O)(=O)c1cccc(C(F)(F)F)c1.Cl (stereo partly drawn) [TCMDC-134258]
Average inhibition male (%) [1, 3]: 5.6%
% inhibition male (individual replicates) R1 [1, 4]: -0.6%
% inhibition male (individual replicates) R3 [1, 5]: 1.0%
% inhibition male (individual replicates) R4 [1, 6]: 12.9%
HitlevelM [1, 15]: 0
Activity [1, 16]: 0
Average inhibition female (%) [2, 3]: 4.2%
% inhibition female (individual replicates) R1 [2, 4]: 10.4%
% inhibition female (individual replicates) R3 [2, 5]: -24.4%
% inhibition female (individual replicates) R4 [2, 6]: 21.9%
HitlevelF [2, 17]: 0

Compound: CN(C)CCC1CCN(CCS(=O)(=O)c2cccc(Nc3ncc(-c4cccc(F)c4)cn3)c2)CC1 [TCMDC-134374]
Average inhibition male (%) [1, 3]: 10.6%
% inhibition male (individual replicates) R1 [1, 4]: 1.8%
% inhibition male (individual replicates) R3 [1, 5]: -1.4%
% inhibition male (individual replicates) R4 [1, 6]: 25.6%
HitlevelM [1, 7]: 0
Average inhibition female (%) [2, 3]: 19.0%
% inhibition female (individual replicates) R1 [2, 4]: 15.2%
% inhibition female (individual replicates) R3 [2, 5]: 18.5%
% inhibition female (individual replicates) R4 [2, 6]: 17.0%
HitlevelF [2, 8]: 0

Compound: COc1cccc(-c2csc(C(=O)NCC3CCN(Cc4ccc(C(C)(C)C)cc4)C3)c2)c1.O=C(O)C(F)(F)F (stereo not drawn) [TCMDC-134447]
Average inhibition male (%) [1, 3]: 11.1%
% inhibition male (individual replicates) R1 [1, 4]: 23.9%
% inhibition male (individual replicates) R3 [1, 5]: 12.3%
% inhibition male (individual replicates) R4 [1, 6]: 2.2%
HitlevelM [1, 7]: 0
Average inhibition female (%) [2, 3]: 52.6%
% inhibition female (individual replicates) R1 [2, 4]: 33.4%
% inhibition female (individual replicates) R3 [2, 5]: 31.5%
% inhibition female (individual replicates) R4 [2, 6]: 78.5%
HitlevelF [2, 8]: 2

Compound: CCc1ccccc1-c1csc(C(=O)NCC2CCN(Cc3ccc(C(C)(C)C)cc3)C2)c1.O=C(O)C(F)(F)F (stereo not drawn) [TCMDC-134448]
Average inhibition male (%) [1, 3]: -3.3%
% inhibition male (individual replicates) R1 [1, 4]: 5.2%
% inhibition male (individual replicates) R3 [1, 5]: -15.7%
% inhibition male (individual replicates) R4 [1, 6]: -8.5%
HitlevelM [1, 7]: 0
Average inhibition female (%) [2, 3]: 31.2%
% inhibition female (individual replicates) R1 [2, 4]: 30.8%
% inhibition female (individual replicates) R3 [2, 5]: 36.1%
% inhibition female (individual replicates) R4 [2, 6]: 25.0%
HitlevelF [2, 8]: 0
